Three compounds from BindingDB's records for PubMed 26804741 (Helmholtz Institute For Pharmaceutical Research Saarland …, 2016) can be followed below.

This test is described as follows: Inhibition of Pseudomonas aeruginosa LecB.
For orientation: IC50 means the midpoint of a concentration-inhibition curve. High values mean a need for much substance, low ones inhibition by little substance. Consider `CC[C@H](C)[C@H](NC(=O)[C@H](Cc1cnc[nH]1)NCCCC[C@H](NC(=O)[C@@H](NC(=O)[C@H](CCCCN)NC(=O)[C@H](Cc1ccccc1)NC(=O)[C@H](CCCCNC(=O)[C@H](CC(C)C)NC(=O)[C@@H]1CCCN1C(=O)[C@@H](N)CCCCNC(=O)C[C@@H]1O[C@@H](C)[C@@H](O)[C@@H](O)[C@@H]1O)NC(=O)[C@H](CC(C)C)NC(=O)[C@@H]1CCCN1C(=O)[C@@H](N)CCCCNC(=O)C[C@@H]1O[C@@H](C)[C@@H](O)[C@@H](O)[C@@H]1O)[C@@H](C)CC)C(=O)N[C@H](C(=O)N[C@@H](CCCCN)C(=O)N[C@@H](Cc1ccccc1)C(=O)N[C@@H](CCCCN[C@@H](CC(C)C)C(=O)N1CCC[C@H]1C(=O)N[C@@H](CCCCNC(=O)C[C@@H]1O[C@@H](C)[C@@H](C)[C@@H](C)[C@@H]1O)C(=O)O)C(=O)N[C@@H](CC(C)C)C(=O)N1CCC[C@H]1C(=O)N[C@@H](CCCCNC(=O)C[C@@H]1O[C@@H](C)[C@@H](O)[C@@H](O)[C@@H]1O)C(=O)O)[C@@H](C)CC)C(N)=O`, for which half-maximal inhibition (IC50) was put at 0.14 µM. The value for `CCCCCCCCO[C@@H]1O[C@H](CO)[C@H](O[C@@H]2O[C@H](CO)[C@H](O)[C@H](O)[C@H]2NC(C)=O)[C@H](O)[C@H]1OCCC` was 8 µM; that for `CO[C@H]1O[C@H]([C@@H](O)CNS(=O)(=O)c2c(C)cc(C)cc2C)[C@@H](O)[C@H](O)[C@@H]1O` was 100 µM.
